In publication PMC5656594 (Scientific Reports, 2017):

Assays:
S217K IN^PFV-DNA complex = target: T1, S217K IN^PFV-DNA complex (Human spumaretrovirus, UniProt P14350, G968K/S969G); test: DTG fluorescence anisotropy binding assay, S217K mutant; design: species or system prototype foamy virus (PFV); settings: 10 mM Mg2+, DTG 0.6 μM, [IN]=[DNA]=2.4 μM
T1 construct: The pET-IN-PFV plasmid containing the full-length IN gene was used for mutagenesis; His; made in house; host or cells: E. coli BL21-CodonPlus (DE3)-RIPL
Procedure: (§1) The fluorescence intensity was monitored as a function of (IN + DNA) and plotted as a function of the binary IN-DNA complex concentration (measured as explained in Fig. 2E legend). […] (B) The percentage of ternary complexes was calculated using DTG fluorescence enhancement. […] The graphs in panels A-B show representative data of three independent experiments. […] "DTG" is taken from the y-axis title of the same panel.
(§2) To note, Mg^2+ is dispensable for the overall DNA-binding step of IN[32],[43]–[45] and thus, the loss of Mg^2+ chelation is not contradictory with results showing that catalytic mutants bind equally well to DNA and in a similar manner than wt IN (Supplementary Fig. S6). However, G187R cannot be considered as a catalytic mutant since it sustains a significant ST activity although weak (≈10% of the wt activity; Fig. 6).
(§3) Fluorescence excitation and emission spectra of INSTIs were recorded on a Eclipse (Varian) spectrofluorimeter equipped with two polarizers for anisotropy measurements and a thermostated cell holder, using 80 µl solutions placed in micro cells (Hellma). […] The steady-state fluorescence anisotropy was calculated using: r = (IVV–G x IVH)/(IVV + 2GxIVH) where IVV and IVH correspond to vertical and horizontal components, respectively, when the sample is excited with vertically polarized light. […]

DNA alone (PFV^CAAT) = test: DTG fluorescence enhancement in the presence of DNA alone; format: binding, prototype foamy virus (PFV); settings: 1 mM Mg2+
Procedure: The three other conditions (i→iii) led to superimposable spectra. To note, the presence of IN/DNA complexes accounts for light scattering on the blue side of the spectrum.
All experiments were performed in the presence of 1 mM Mg^2+ (see Supplementary Fig. S4 for [Mg^2+] = 10 mM). λex = 345 nm and PMT = 980 V (Δλex = Δλem = 5 nm). […] Contributions of Raman and Rayleigh scattering were eliminated in the inset spectrum: (viii) = (iv)–(vii) where (vii) represents the proper spectrum of Mg^2+-DTG in the context of the binary IN-DNA complex. […] [Mg^2+] = 1 mM. Inset: fluorescence intensity (375–385 nm) as a function of (IN + DNA). The arrows indicate the intensity level after addition of 500 mM NaCl. Emission spectra are representative of 3 independent experiments for each condition of (IN + DNA). […] (E) Measurement of the binary IN-DNA complex formation. The formation of binary complexes was performed by monitoring the fluorescence anisotropy (r) of DNA (Fl-PFV^CAAT) under similar experimental conditions of the DTG-binding assay (panels C-D). Top, varying stoichiometric concentrations of IN and DNA were mixed and the r parameter was monitored. […]
Fluorescence excitation and emission spectra of INSTIs were recorded on a Eclipse (Varian) spectrofluorimeter equipped with two polarizers for anisotropy measurements and a thermostated cell holder, using 80 µl solutions placed in micro cells (Hellma). […]

D128N IN^PFV-DNA complex = target: T2, D128N IN^PFV-DNA complex (Human spumaretrovirus, UniProt P14350, D879N/G968S/S969G); test: Fluorescence enhancement DTG-binding assay, D128N catalytic mutant; design: species or system prototype foamy virus (PFV); settings: 1 mM Mg2+
T2 construct: The pET-IN-PFV plasmid containing the full-length IN gene was used for mutagenesis; His; made in house; host or cells: E. coli BL21-CodonPlus (DE3)-RIPL
Procedure: as §1, §2, §3

C[C@@H]1CCO[C@H]2Cn3cc(C(=O)NCc4ccc(F)cc4F)c(=O)c(O)c3C(=O)N12 [DTG, dolutegravir]
DTG binding to S217K by DTG anisotropy (S217K IN^PFV-DNA complex): DTG-binding defects | DTG binding to DNA alone (DNA alone (PFV^CAAT)): no DTG binding | DTG binding to D128N catalytic mutant (D128N IN^PFV-DNA complex): loss of DTG-binding
